Test results from patent US20010014676A1, “Immunosuppressive compositions” (priority 1990, published 2001).

System: Lewis-Brown Norway F1 Hybrid cardiac allografts in Lewis recipients
Assay: acute cardiac allograft rejection model (procedure of Kupiec-Weglinski)
Assay type: in vivo, rat
Details: for GRAFT SURVIVAL MEAN ± SD: N=7
Experimental: The therapeutic efficacy of a pharmaceutical composition of the invention was tested according to the procedure of Kupiec-Weglinski, J. W., et al., (1988) Transplant Proc. 20:207-216 (hereinafter “Kupiec-Weglinski”) to determine its in vivo potency as an acute transplantation/graft rejection modulator.
Briefly, to preform these experiments, the following protocol was employed. Male inbred adult rats (Lewis-Brown Norway F1 Hybrid rats, obtained from Harlan sprague—Dawley Inc., Indianapolis, Ind.) were used. Lewis-Brown Norway F1 Hybrid cardiac allografts were transplanted to the abdominal great vessels of Lewis recipients. The animals were administered compounds according to the following five distinct regimens.
Protocol I. Pretreatment Protocol—20 mg/kg/day of Compound A was administered orally for 7 consecutive days prior to transplantation (days −7 to −1).
Protocol II Treatment Protocol—20 mg/kg/day of Compound A was administered orally for 7 consecutive post-transplant days (days 0-6) followed by intermittent 5 day courses (days 9-13 and 16-20).
Protocol III Pretreatment and Treatment Protocol—20 mg/kg/day of Compound A was administered orally for 7 consecutive days prior to transplantation (days −7 to −1) followed by intermittent 5 day courses (days 9-13 and 16-20).
Ventricular contractions were assessed daily by palpation through the recipient flank. Rejection was defined as the day of cessation of myocardial contractions and confirmed histologically.

CCCC1(CCC)CCC2(CCN(CCCN(C)C)C2)CC1 [Compound A, N,N-dimethyl-8,8-dipropyl-2-azaspiro [4,5]-decane-2-propanamine]
average graft survival time (Compound A alone (pretreatment, treatment or pretreatment and treatment protocol), untreated average 7 days): 16 days
GRAFT SURVIVAL MEAN ± SD (Protocol I pretreatment: Compound A 20 mg/kg/day orally, days -7 to -1): 14.7 ± 5.8 days
GRAFT SURVIVAL MEAN ± SD (Protocol II treatment: Compound A 20 mg/kg/day orally, days 0-6, then days 9-13 and 16-20): 16.7 ± 2.0 days
GRAFT SURVIVAL MEAN ± SD (Protocol III pretreatment and treatment: Compound A 20 mg/kg/day orally, days -7 to -1, then days 9-13 and 16-20): 16.0 ± 4.3 days
graft survival time (transplants routinely retained) (combination protocol: Compound A 20 mg/kg/day orally plus cyclosporin A […] by injection, days 0-6): over 40 days
